Test results taken from patent US10058099B2, “Antimicrobial materials and methods” (University of Florida Research Foundation, Inc., priority 2011, dated 2018).
Converted amounts (≈) assume the structure as drawn. Where two headings read alike, the source gives them in different places.

Key:
E. coli K12 biofilms = assay: Minimum inhibitory concentration (MIC) with the Calgary Biofilm Device (MBEC assay); type: cell-based, Escherichia coli K-12; conditions: 24 h, dark, 37 °C, 90% inhibition of growth, OD 600 nm
Description: To screen the effectiveness of EO-OPEs shown above at killing bacteria residing in a biofilm, a Calgary Biofilm Device (CBD), commercially available as the MBEC™ assay was used to grow 96 equivalent biofilms at a time, and to determine the minimum inhibitory concentration (MIC). After incubating the CBD devise in Escherichia coli (E. coli K12) suspension in LB media for 24 hours, biofilms were uniformly formed on the CBD surface. The E. coli biofilms were then incubated with EO-OPEs for 24 hours to obtain their MIC values.
(§1) Escherichia coli K-12 was obtained from the American Type Culture Collection (ATCC #10798), revived in Luria Broth (LB, Sigma) and stored in LB with 20% (v/v) glycerol at −70° C. Stock cultures maintained on agar (2% Difco) plates of LB were used to inoculate 50 mL cultures in liquid LB. E. coli was grown at 37° C. for 18 h. Bacteria were grown as a microbial biofilm using a Calgary Biofilm Device (CBD), commercially available as the MBEC™ assay, featuring 96 pegs protruding down from a microtiter plate lid and fitting into the wells of a standard 96-well microtiter plate. This device allows 96 identical biofilms to grow on the pegs at a time. Biofilms of E. coli were grown in each well using 150 μL of the culture diluted to 1×10^7 CFU (colony forming unit) following previous calibration. The biofilms were grown at 37° C. for 24 h in a shaker at 150 rpm.
The minimum inhibitory concentration (MIC) represents the lowest concentration of antimicrobial required to inhibit the visible growth of a planktonic bacterial population. The MIC was determined using the CBD.^17, 18, 20 Biofilms were formed on the peg surface of the CBD as described above and then transferred to a 96-well microtiter plate containing 200 μL of saline (0.85% NaCl aqueous solution) and washed for 5 min to remove non-adherent bacteria. The biofilms were transferred to a plate containing 200 μL of LB with a gradient concentration of the OPEs (challenge plate). Each concentration was repeated eight times (one row of the plate). The biofilms were then incubated in the dark at 37° C. for 24 h. To determine the MIC, the growth of bacteria was evaluated in the challenge plate after incubation. The optical density of each well was measured at 600 nm and the MIC was calculated for 90% inhibition of growth compared with biofilms grown in LB only.

E. coli biofilms = assay: Minimum biofilm eradication concentration (MBEC) with the Calgary Biofilm Device; type: cell-based, Escherichia coli K-12; conditions: for MBEC (dark) / MBEC (light): E. coli biofilm; for MBEC (dark): 24 h incubation in the dark; for MBEC (light): 1 h near-UV light (300-400 nm)
Description: as §1
The Minimum biofilm eradication concentration (MBEC) is the lowest concentration at which bacteria from a biofilm fail to regrow. The MBEC was also measured using the CBD and detailed procedure has been described elsewhere.^17, 18, 20 Biofilms were formed and washed as described above. The biofilms were then transferred to a plate containing saline with a gradient concentration of the OPEs (challenge plate). The samples exposed to light were incubated for 1 h in a LuzChem ORG photoreactor using Hitachi FL8BL-B (λ=300-400 nm) lamps, whereas the samples kept in the dark, were incubated for 24 h in a shaker at 150 rpm. The biofilms were then removed from the challenge plate and washed twice in a plate of saline solution to remove traces of OPEs. The biofilms were placed in a plate containing LB media (recovery plate) and sonicated for 10 min in an ultrasonic cleaner (VWR 97043-964) in order to recover the biofilm in the media solution through vibration. The recovery plate containing the biofilms was incubated in the dark at 37° C. for 24 h. To determine the MBEC, the growth of bacteria was evaluated in the recovery plate after incubation. […] Bacterial grown in a specific well indicates regrowth of planktonic bacteria from surviving biofilm, while clear wells indicate the eradication of the biofilms and the lack of bacteria regrowth.

[1] = Singlet oxygen quantum yield, emission at 1270 nm; type: physicochemical; conditions: CD3OD, 2'-acetonaphthone (ΦΔ = 0.79) as actinometer
Text: We carried out transient absorption experiments in methanol and water solutions. […] The lifetime of the transient absorption is in the microsecond range and in each case it is efficiently quenched by O2 indicating the absorption is due to the triplet excited state. By examination of the initial amplitudes of the transient absorption (ΔA, t=0, Table 1), we were able to qualitatively determine the relative triplet yield of these oligomers. […] To substantiate our hypothesis, we carried out studies to observe singlet oxygen emission in deuterated methanol (as the life time of the singlet oxygen is very short in […]).^21 As anticipated, each of the oligomers is capable of sensitizing the formation of singlet oxygen as observed by its characteristic emission at 1270 nm. Of the oligomers studied, (C) and (E) show a higher quantum yield for singlet oxygen generation (ΦΔ) which corroborates well with the photophysical studies described above.
Absorption and fluorescence spectra were recorded on a Cary 100 UV-Vis spectrophotometer and a Photon Technology International spectrofluorometer, respectively. The optical density of the solutions was adjusted to ˜0.7 at the excitation wavelength (355 nm) with the laser energy set at ˜7 mJ. Solutions were purged with argon for 45 min before making transient absorption spectroscopy measurements. Singlet oxygen quantum yields were measured using a Photon Technology International Quantamaster near-IR spectrophotometer equipped with an InGaAs photodiode detector, optical chopper and a lock in amplifier. See Table 1 and FIGS. 1-2 for results.

S. aureus = assay: Viability of S. aureus cells after UV exposure or dark incubation with oligomer solution; type: cell-based; conditions: for killing / deactivation of S. aureus: 10 min UV irradiation, 1 μg/mL printed for EO-OPE-DABCO
Description: FIG. 24 is a graph showing the viability of S. aureus cells with 1 μg/mL and 10 μg/mL of OPE-DABCO and EO-OPE-DABCO solution following exposure to UV light and incubation in dark.
[drawing 28] containing quaternary ammonium pendant groups based on 1,4-diazabicyclo-[2.2.2.]-octane (DABCO). It has been shown that the incorporation of the DABCO group into antimicrobials might amplify its ability to diffuse into the bacterial cell wall due to similarities between this moiety and the lipid layer. [Ref: Kenawy, E. R., S. D. Worley, and R. Broughton, The chemistry and applications of antimicrobial polymers: A state-of-the-art review. Biomacromolecules, 2007. 8(5): p. 1359-1384] Therefore, the binding of antimicrobials to the cytoplasmic membrane of the bacteria is increased by both ionic and van der Waals interactions. [Ref: Kenawy, E. R., S. D. Worley, and R. Broughton, The chemistry and applications of antimicrobial polymers: A state-of-the-art review. Biomacromolecules, 2007. 8(5): p. 1359-1384] These two oligomers have been employed to compare their antimicrobial activity both in the dark and under the UV light in regard to their structure difference.

[2] = Escherichia coli, K12BIOFILMS, read-out: MIC

| ΦΔ (quantum yield for singlet oxygen generation) [1] | SMILES | MIC (E. coli K12 biofilms; [2]) [mg/L] | MBEC (dark) (E. coli biofilms) [µg/mL] | MIC (E. coli K12 biofilms) [mg/L] | killing / deactivation of S. aureus (S. aureus) [%] | deactivation of S. aureus with increasing irradiation time (S. aureus; UV, irradiation longer than 10 min (FIG. 24)) [%] | killing of E. coli biofilm under near-UV light exposure (E. coli biofilms; 1 h near-UV, in the concentration range tested) | dark killing of E. coli biofilm (E. coli biofilms; 24 h dark, concentration range <1000 μg/mL) | MBEC (light) (E. coli biofilms) [µg/mL] | bacteria surviving (S. aureus; S. aureus, 10 min incubation in the dark) [%] |
| --- | --- | --- | --- | --- | --- | --- | --- | --- | --- | --- |
| – | NC[C@H]1O[C@H](O[C@H]2[C@H](O)[C@@H](O[C@H]3O[C@H](CO)[C@@H](O)[C@H](N)[C@H]3O)[C@H](N)C[C@@H]2N)[C@H](O)[C@@H](O)[C@@H]1O [kanamycin, reference compound] | 11.2 (≈ 23.1 µM) | >1000 | – | – | – | – | – | – | – |
| 0.34 ± 0.03 | CCCCCC[N+]12CC[N+](CCCOc3cc(C#Cc4ccc(C(=O)OCC)cc4)c(OCCC[N+]45CC[N+](CCCCCC)(CC4)CC5)cc3C#Cc3ccc(C(=O)OCC)cc3)(CC1)CC2 [oligomer (A)] | 52 | >1000 | 51.7 | ~75 | ~99 | did not show any killing | did not exhibit any dark killing | >500 | – |
| 0.46 ± 0.02 | CCCCCC[N+]12CC[N+](CCCOc3ccc(C#Cc4ccc(C#Cc5ccc(OCCC[N+]67CC[N+](CCCCCC)(CC6)CC7)cc5)s4)cc3)(CC1)CC2 [oligomer (C)] | 15.8 | 150 | – | – | – | – | – | 60 | – |
| 0.20 ± 0.02 | CCCCCC[N+]12CC[N+](CCCOc3ccc(C#Cc4ccc(C#Cc5ccc(OCCC[N+]67CC[N+](CCCCCC)(CC6)CC7)cc5)cc4)cc3)(CC1)CC2 [oligomer (B)] | 14 | 200 | 14.0 | 100 | – | – | – | 60 | < 10 |
